Columns and labels:
[1] = tested on: kainate (KA) mouse model of chronic temporal lobe epilepsy; test: Telemetric EEG recording of spontaneous seizures in kainate (KA) mouse model of chronic temporal lobe epilepsy; type: in vivo, C57BL/6j male mice; settings: for Seizure duration / Seizure frequency: 200 mg/kg i.p. single injection, n = 5
Protocol: Six weeks old C57BL/6j male mice were injected unilaterally with kainate (KA; 0.05 μl, 20 mM in saline) at a rate of 0.5 μl/min in the CA1 area of the right hippocampus (−2 mm anteroposterior, +1.5 mm lateral, −1.4 mm dorso-ventral) by mean of a stereotaxic apparatus and a cannula (0.29 mm diameter) connected to a precision pump. Mice were then left 3 weeks for settling of the chronic epileptic phenotype.
EEG experiments were carried out using wireless ETA-F 10 transmitters (DataSciences International, USA) for chronic EEG recording and video monitoring 3 weeks after KA injection. After anesthesia (ketamine, 95 mg/kg; xylazine, 10 mg/kg; i.p.), a 1 cm midline sagittal incision was made starting above the skull midline and extending along the neck to create a pocket for subcutaneous placement of the transmitter along the dorsal flank of the animal. The recording flexible electrodes (stereotaxic coordinates: −2 mm anteroposterior, +1.5 mm and −1.5 mm lateral) were implanted subdurally through small holes drilled in the skull and held in place with dental cement. Mice were implanted with wireless ETA-F10 transmitters 2 weeks after the KA injection and were allowed to recover for 7 days before recording.
EEG signal was collected through DSI radiofrequency receivers placed under each cage. EEG data were acquired at a sampling rate of 200 Hz using the DSI Dataquest A.R.T. system (version 4.33). To assess therapeutic potential of probenecid, KA mice were recorded with ETA-F10 DSI EEG electrodes for 48 h in their home cage, injected with probenecid (200 mg/kg in corn oil, Sigma-Aldrich; i.p.) and recorded for 24 hours post-treatment. Analysis of seizures was performed using the NeuroScore software (Data Sciences International, USA); seizures were detected on the EEG as spike trains with a minimal amplitude of 1.5× baseline and a minimal duration of 5 s at a frequency ≥1 Hz (Bergstrom et al., Sci Rep. 2013; 3:1483. doi: 10.1038/srep01483). Artifacts were automatically detected using a high detection threshold and removed manually.
To further assess the therapeutic potential of probenecid, we tested the in vivo effect of probenecid i.p. in a kainate (KA) mouse model of chronic temporal lobe epilepsy. To do so, electroencephalogram (EEG) of KA mice were recorded before (48 hours) and after (24 hours) probenecid administration (200 mg/kg) (FIG. 1C).

[2] = tested on: human epileptic cortical slices; test: Multi-electrode array (MEA) recordings of ictal-like discharges in human epileptic cortical slices in pro-epileptic conditions; type: cell-based
Protocol: The resected cortical block was prepared according to Dossi et al. (J Vis Exp. 2014 Oct. 26; (92):e51870). Briefly, post-surgical tissue was transported in a cold solution containing (in mM) 250 D-sucrose, 25 NaHCO3, 3 KCl, 1 CaCl2, 10 MgCl2 and 10 D-glucose, and oxygenated with carbogen (95% O2 and 5% CO2). Meninges, blood clots and vessels were gently removed and transverse cortical slices (400 μm-thick) were cut with a vibratome (HM650V, Microm Microtech, France). They were maintained at 37° C., equilibrated with 95% 02 and 5% CO2, in an interface chamber, continuously perfused with an artificial cerebro-spinal fluid (ACSF) containing (in mM) 124 NaCl, 3 KCl, 26 NaHCO3, 1.6 CaCl2, 1.3 MgCl2 and 10 D-glucose at 2 ml/min, for at least 1 hour before recording.
Cortical slices were transferred on planar MEA petri dishes (200-30 ITO electrodes, organized in a 12×12 matrix, with internal reference, 30 μm diameter and 200 μm inter-electrode distance; Multichannel Systems, Germany). They were kept in place using a platinum anchor and continuously perfused at a rate of 5-6 ml/min with ACSF.
Pictures of cortical slices on MEAs were acquired with a video microscope table (MEA-VMT1; Multichannel Systems, Germany) through MEA_Monitor software (Multichannel Systems, Germany) to identify the location of the electrodes relatively to the pial surface of the slices. Data were sampled at 10 kHz and the slice activity was recorded at 37° C. by a MEA2100-120 system (bandwidth 1-3000 Hz, gain 5×; Multichannel Systems, Germany) through MC_Rack 4.5.1 software (Multichannel systems, Germany) The activity of the slices was recorded in ACSF containing (in mM) 124 NaCl, 3 KCl, 26 NaHCO3, 1.6 CaCl2, 1.3 MgCl2 and 10 D-glucose (Ct ACSF) and in high potassium, magnesium-free pro-epileptic ACSF containing (in mM) 6 KCl, 0 Mg^2+ (6K 0Mg-ACSF).
To investigate whether probenecid medication could be used as a treatment for epileptic seizures, the electrophysiological activity of human epileptic cortical slices was recorded in pro-epileptic conditions, before and after probenecid administration (1 mM, 30 minutes).

[3] = 20-24 hours post-treatment, single injection 200 mg/kg i.p.
[4] = probenecid 1 mM, 30 minutes, pro-epileptic ACSF (6K 0Mg), n = 6 slices

In the case of CCCN(CCC)S(=O)(=O)c1ccc(C(=O)O)cc1 [Probenecid, 4-(dipropylsulfamoyl)benzoic acid], the Seizure duration ([1]; 4-8 h post-treatment) is reported as “no seizure detected”, the Seizure frequency ([1]; 4-8 h post-treatment) is reported as “no seizure detected” and the “Effect on spontaneous seizures” value ([1]; 4 to 8 hours post-treatment, single injection 200 mg/kg i.p., in all mice tested) is reported as “completely blocked”. The “Duration of reappeared seizures versus pre-treatment” value [1, 3] was “significantly shorter duration”, the “Mice in which seizures reappeared” value [1, 3] was 2 of 5 and the Seizure duration ([1]; 20-24 h post-treatment) was 3.6 ± 2.25 s. For the same compound, the Seizure frequency ([1]; 20-24 h post-treatment) was 1.2 ± 0.97 seizure/4 h, the “Effect on IDs (FIG. 1A example recording)” value ([2]; PBN 1 mM, 30 min, PIDs do not disappear) was “disappear” and the “human cortical slices in which ictal-like discharges (IDs) were fully inhibited” value ([2]; probenecid 1 mM, 30 minutes) was 5 out of 6. The ID duration [2, 4] was 7.59 ± 7.59 s, the ID frequency [2, 4] was 0.03 ± 0.03 IDs/min and the “ID duration in the remaining slice” value ([2]; probenecid 1 mM, 30 minutes, the one slice not fully inhibited) was “halved”.
